{
  "source": "patent US6958335B2",
  "about": "“Treatment of gastrointestinal stromal tumors” (Novartis AG, priority 2000, dated 2005)",
  "key": {"[1]": {"test_system": "unresectable metastatic GIST", "settings": "for total tumour size (tumour area of 8 large measurable liver metastases, MRI): 112.5 cm^2 before treatment", "method": "Seven cycles of IADIC (ifosfamide, doxoribicin, and dacarbazine) were given from November 1998 to March 1999 for multiple liver metastases. […] They were subsequently treated between April 1999 and February 2000 with an experimental regimen consisting of thalidomide 400 mg once daily and interferon alpha 0.9 MU T.I.D. s.c. to control persisting liver disease.\n(§1) Treatment toxicity was assessed at follow-up visits performed at 2 to 4 week intervals, and blood cell counts and blood chemistry were analysed at 1 to 2 week intervals. Treatment response was assessed with dynamic MRI scans, ^18F-fluorodeoxyglucose (FDG) positron emission tomography (PET) examinations, and cutting needle biopsies from a liver metastasis. Dynamic MRI was performed with a 1.5T Magnetom Vision (Siemens, Erlangen, Germany). Fat-suppressed T1-weighted breathhold gradient echo transaxial images were obtained both before and after intravenous contrast medium injection (0.1 mmol/kg gadolinium-DOTA; Dotarem, Guerbet, France). The enhancement pattern was established using sequential imaging over 5 minutes, and delayed scanning was performed after 10 minutes. FDG PET was done using an 8-ring ECAT 931/08 device (Siemens-CTI Corp. Knoxville, Tenn.). The FDG dose given varied between 355 to 375 MBq."}, "[2]": {"settings": "during therapy", "method": "as §1, with “minutes.” for “minutes. FDG PET was done using an 8-ring ECAT 931/08 device (Siemens-CTI Corp. Knoxville, Tenn.). The FDG dose given varied between 355 to 375 MBq.”"}, "GIST": {"test_system": "GIST", "from_the_text": "At the priority date of the present patent application a clinical study with more GIST patients was being conducted analogously to the study described in Example 1."}, "[3]": {"test_system": "unresectable and/or metastatic malignant gastrointestinal stromal tumors (GIST)", "method": "A phase 2, open-label, randomized multinational study was conducted in patients with unresectable and/or metastatic malignant gastrointestinal stromal tumors (GIST). […] The primary evidence of efficacy was based on objective response rates, and the time to response, duration of response, time to treatment failure and survival were also evaluated. Tumors were required to be measurable in at least one site of disease, and response characterization based on Southwestern Oncology Group (SWOG) criteria."}, "[4]": {"settings": "among the 61 patients with stable disease"}},
  "note": "Where two headings read alike, the source gives them in different places.",
  "data": [
    {"smiles": "CS(=O)(=O)O.Cc1ccc(NC(=O)c2ccc(CN3CCN(C)CC3)cc2)cc1Nc1nccc(-c2cccnc2)n1", "note": "[SALT I]", "values": [
      {"measurement": "metabolic response in tumour (PET imaging)", "setting": "[1]; 400 mg daily orally, within 1 month", "value": "complete metabolic response"},
      {"measurement": "decrease of total tumour size (MRI)", "setting": "[1]; 1 month", "value": 52, "unit": "%"},
      {"measurement": "total tumour size (tumour area of 8 large measurable liver metastases, MRI)", "setting": "[1]; 1 month", "value": 54.3, "unit": "cm^2"},
      {"measurement": "decrease of total tumour size (MRI)", "setting": "[1]; 2 months", "value": 63, "unit": "%"},
      {"measurement": "total tumour size (tumour area of 8 large measurable liver metastases, MRI)", "setting": "[1]; 2 months", "value": 41.5, "unit": "cm^2"},
      {"measurement": "decrease of total tumour size (MRI)", "setting": "[1]; 2 weeks after starting", "value": 41, "unit": "%"},
      {"measurement": "total tumour size (tumour area of 8 large measurable liver metastases, MRI)", "setting": "[1]; 2 weeks after starting", "value": 66.9, "unit": "cm^2"},
      {"measurement": "decrease of total tumour size (MRI)", "setting": "[1]; 4 months", "value": 68, "unit": "%"},
      {"measurement": "total tumour size (tumour area of 8 large measurable liver metastases, MRI)", "setting": "[1]; 4 months", "value": 36.2, "unit": "cm^2"},
      {"measurement": "decrease of total tumour size (MRI)", "setting": "[1]; 5.5 months", "value": 71, "unit": "%"},
      {"measurement": "total tumour size (tumour area of 8 large measurable liver metastases, MRI)", "setting": "[1]; 5.5 months", "value": 32.5, "unit": "cm^2"},
      {"measurement": "FDG uptake in PET", "setting": "[1]; PET 1 month after starting", "value": "no abnormal FDG uptake was present in the liver"},
      {"measurement": "FDG uptake in PET at the sites of liver metastases", "setting": "[1]; PET 2 months after starting", "value": "less FGD uptake than the surrounding liver parenchyma"},
      {"measurement": "World Health Organization (WHO) performance status", "setting": "[1]; during therapy, improved from 1 before", "value": 0},
      {"measurement": "new lesions", "setting": "[1]; follow-up MRI on treatment", "value": "No new lesions appeared"},
      {"measurement": "liver metastases that disappeared", "setting": "[1]; of the 28 liver metastases, follow-up MRI on treatment", "value": 6},
      {"measurement": "pattern of contrast enhancement of tumour by dynamic MRI", "setting": "[1]; within 2 weeks after starting", "value": "decreased dramatically"},
      {"measurement": "drug-related liver, renal or cardiac toxicity", "setting": "[2]", "value": "No drug-related liver, renal or cardiac toxicity was observed"},
      {"measurement": "reduction in patients with partial response", "setting": "GIST; 8 patients", "value": "50-66%"},
      {"measurement": "reduction in patients with stable disease", "setting": "GIST; 18 patients", "value": "4-42%"},
      {"measurement": "patients with partial response", "setting": "GIST; of 27 evaluated patients", "value": 8, "unit": "patients"},
      {"measurement": "patients with stable disease", "setting": "GIST; of 27 evaluated patients", "value": 18, "unit": "patients"},
      {"measurement": "patients with progression of the disease", "setting": "GIST; of 27 evaluated patients, study not finished", "value": 1, "unit": "patient"},
      {"measurement": "Best response: Complete response", "setting": "[3]; 400 mg (N = 73)", "value": "0 n (%)"},
      {"measurement": "Best response: Not evaluable", "setting": "[3]; 400 mg (N = 73)", "value": "3 (4.1) n (%)"},
      {"measurement": "Best response: Partial response", "setting": "[3]; 400 mg (N = 73)", "value": "27 (37.0) n (%)"},
      {"measurement": "Best response: Progressive disease", "setting": "[3]; 400 mg (N = 73)", "value": "10 (13.7) n (%)"},
      {"measurement": "Best response: Stable disease", "setting": "[3]; 400 mg (N = 73)", "value": "33 (45.2) n (%)"},
      {"measurement": "Best response: Unknown", "setting": "[3]; 400 mg (N = 73)", "value": "0 n (%)"},
      {"measurement": "differences between dose groups in efficacy parameters", "setting": "[3]; 400 mg vs 600 mg", "value": "could not be observed"},
      {"measurement": "Best response: Complete response", "setting": "[3]; 600 mg (N = 74)", "value": "0 n (%)"},
      {"measurement": "Best response: Not evaluable", "setting": "[3]; 600 mg (N = 74)", "value": "4 (5.4) n (%)"},
      {"measurement": "Best response: Partial response", "setting": "[3]; 600 mg (N = 74)", "value": "32 (43.2) n (%)"},
      {"measurement": "Best response: Progressive disease", "setting": "[3]; 600 mg (N = 74)", "value": "8 (10.8) n (%)"},
      {"measurement": "Best response: Stable disease", "setting": "[3]; 600 mg (N = 74)", "value": "28 (37.8) n (%)"},
      {"measurement": "Best response: Unknown", "setting": "[3]; 600 mg (N = 74)", "value": "2 (2.7) n (%)"},
      {"measurement": "Best response: Complete response", "setting": "[3]; All doses (N = 147)", "value": "0 n (%)"},
      {"measurement": "Best response: Not evaluable", "setting": "[3]; All doses (N = 147)", "value": "7 (4.8) n (%)"},
      {"measurement": "Best response: Partial response", "setting": "[3]; All doses (N = 147)", "value": "59 (40.1) n (%)"},
      {"measurement": "Best response: Stable disease", "setting": "[3]; All doses (N = 147)", "value": "61 (41.5) n (%)"},
      {"measurement": "Best response: Unknown", "setting": "[3]; All doses (N = 147)", "value": "2 (1.4) n (%)"},
      {"measurement": "patients with reduction in tumor size by more than 25% on at least one assessment", "setting": "[3]; all 147 patients", "value": 118, "unit": "patients"},
      {"measurement": "share of patients with reduction in tumor size by more than 25% on at least one assessment", "setting": "[3]; all 147 patients", "value": 80, "unit": "%"},
      {"measurement": "patients with partial response not yet confirmed by a second assessment", "setting": "[3]; [4]", "value": 28, "unit": "patients"},
      {"measurement": "patients with reduction in tumor size by more than 25%", "setting": "[3]; [4]", "value": 19, "unit": "patients"},
      {"measurement": "patients with significant tumor shrinkage among stable disease", "setting": "[3]; [4]", "value": 47, "unit": "patients"},
      {"measurement": "estimate of patients free from treatment failure", "setting": "[3]; at 12 weeks, interval censoring", "value": 80, "unit": "%"},
      {"measurement": "estimate of patients free from treatment failure", "setting": "[3]; at 12 weeks, without interval-censoring", "value": 81, "unit": "%"},
      {"measurement": "estimate of patients free from treatment failure", "setting": "[3]; at 24 weeks, interval censoring", "value": 66, "unit": "%"},
      {"measurement": "estimate of patients free from treatment failure", "setting": "[3]; at 24 weeks, without interval-censoring", "value": 67, "unit": "%"},
      {"measurement": "median time to the onset of response", "setting": "[3]; entire study population", "value": 12, "unit": "weeks"},
      {"measurement": "relapse among patients with confirmed response", "setting": "[3]; interim analysis", "value": "No patients with confirmed response had relapsed"},
      {"measurement": "median duration of response", "setting": "[3]; interim analysis, no interval censoring", "value": "approximately 14 weeks"},
      {"measurement": "median time to treatment failure", "setting": "[3]; interval censoring, pooled population, based on only two patients, not reliable", "value": 54, "unit": "weeks"}
    ]}
  ]
}
